Test results taken from patent publication US7842809B2, “Pyrazolopyridines and salts thereof, a pharmaceutical composition comprising said compounds, a method of preparing same and use of same” (Bayer Schering Pharma AG, priority 2005, dated 2010).

Tests used:
Tie2 [1] = target: T1, Tie2 (Homo sapiens, UniProt Q02763); test: Tie-2 kinase assay without preactivation of kinase (Biological Experiment 3, HTRF); assay type: biochemical; parameters: fusion protein of GST and the intracellular domains of Tie-2; GST; made in house; host or cells: insect cells (Hi-5); conditions: mean IC50; GST-Tie-2 without preactivation, 10 μM ATP; read-out: Inhibition of Tie-2 kinase (Biological Experiment 3)
Text: Biological Experiment 3: Tie-2 Kinase Assay without Preactivation of Kinase
A recombinant fusion protein of GST and the intracellular domains of Tie-2, expressed in insect cells (Hi-5) and purified by Glutathion-Sepharose affinity chromatography was used as kinase. Alternatively, commercially available GST-Tie2-fusion protein (Upstate Biotechnology, Dundee, Scotland) can be used. As substrate for the kinase reaction the biotinylated peptide biotin-Ahx-EPKDDAYPLYSDFG (C-terminus in amide form) was used which can be purchased e.g. from the company Biosynthan GmbH (Berlin-Buch, Germany). Tie-2 (3.5 ng/measurement point) was incubated for 60 min at 22° C. in the presence of 10 μM adenosine-tri-phosphate (ATP) and 1 μM substrate peptide (biotin-Ahx-EPKDDAYPLYSDFG-NH2) with different concentrations of test compounds (0 μM and concentrations in the range 0.001-20 μM) in 5 μl assay buffer [50 mM Hepes/NaOH pH 7, 10 mM MgCl2, 0.5 mM MnCl2, 1.0 mM dithiothreitol, 0.01% NP40, protease inhibitor mixture (“Complete w/o EDTA” from Roche, 1 tablet per 2.5 ml), 1% (v/v) dimethylsulfoxide]. To stabilize the enzyme, bovine serum albumin (0.1%, w/v) can be added. The reaction was stopped by the addition of 5 μl of an aqueous buffer (25 mM Hepes/NaOH pH 7.5, 0.28% (w/v) bovine serum albumin) containing EDTA (90 mM) and the HTRF (Homogeneous Time Resolved Fluorescence) detection reagents streptavidine-XLent (0.2 μM, from C is Biointernational, Marcoule, France) and PT66-Eu-Chelate (0.3 ng/μl; a europium-chelate labelled anti-phospho-tyrosine antibody from Perkin Elmer).
The resulting mixture was incubated 1 h at 22° C. to allow the binding of the biotinylated phosphorylated peptide to the streptavidine-XLent and the PT66-Eu-Chelate. Subsequently the amount of phosphorylated substrate peptide was evaluated by measurement of the resonance energy transfer from the PT66-Eu-Chelate to the streptavidine-XLent. Therefore, the fluorescence emissions at 620 nm and 665 nm after excitation at 350 nm was measured in a HTRF reader, e.g. a Rubystar (BMG Labtechnologies, Offenburg, Germany) or a Viewlux (Perkin-Elmer). The ratio of the emissions at 665 nm and at […] was taken as the measure for the amount of phosphorylated substrate peptide. The data were normalised (enzyme reaction without inhibitor=0% inhibition, all other assay components but no enzyme=100% inhibition) and IC50 values were calculated by a 4 parameter fit using an inhouse software.
Target sequence in this assay (Q02763 770-1124 limits assumed): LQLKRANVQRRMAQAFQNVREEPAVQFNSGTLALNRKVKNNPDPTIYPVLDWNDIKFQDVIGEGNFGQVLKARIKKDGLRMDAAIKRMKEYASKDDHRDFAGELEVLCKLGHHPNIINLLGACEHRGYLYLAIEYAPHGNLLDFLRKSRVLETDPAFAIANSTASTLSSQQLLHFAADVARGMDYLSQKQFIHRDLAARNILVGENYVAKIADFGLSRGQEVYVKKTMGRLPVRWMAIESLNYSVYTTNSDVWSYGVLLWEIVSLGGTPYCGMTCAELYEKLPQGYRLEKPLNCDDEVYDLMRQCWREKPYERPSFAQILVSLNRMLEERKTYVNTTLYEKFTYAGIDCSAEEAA

Tie2 [2] = target: T1, Tie2; test: Tie-2 ELISA: angiopoietin-2 stimulated Tie2 autophosphorylation in Tie2-transfected CHO cells (Biological Experiment 1); assay type: cell-based; parameters: expressed in transfected cells; host or cells: CHO (DHFR-deficient), stably transfected; conditions: mean IC50; CHO Tie2/DHFR cells stimulated with Ang2-Fc
Protocol: Biological Experiment 1: ELISA-Assay
Herein CHO cell-cultures, which are stably transfected by known techniques with Tie2 using DHFR deficiency as selection marker, are stimulated by angiopoietin-2. The specific autophosphorylation of Tie2 receptors is quantified with a sandwich-ELISA using anti-Tie2 antibodies for catch and anti-phosphotyrosine antibodies coupled to HRP as detection.
• 1 cap Vanadate (1 mL>40 mg/mL; working solution 2 mM) • ad 50 mL with Duschl buffer • pH 7.6 Anti-TIE-II antibody 1:425 in Coating Buffer pH 9.6 Stock solution: 1.275 mg/ml>working.: 3 μg/mL PBST: 2 bottles PBS(10×)+10 ml Tween, fill up with deionised water RotiBlock 1:10 in deionised water Anti-Phosphotyrosine HRP-Conjugated 1:10000 in 3% TopBlock • 3% TopBlock in PBST BM Chemiluminescence ELISA Substrate (POD) • solution B 1:100 solution A SF9 cell culture medium Ang2-Fc in SF9 cell culture medium Cell Experiment: Dispense 5×10^4 cells/well/98 μl in 96 well tissue culture plate Incubate at 37° C./5% CO2 After 24 h add compounds according to desired concentrations Add also to control and stimulated values without compounds 2 μl DMSO And mix for a few min at room temperature Add 100 μAng2-Fc to all wells except control, which receives insect medium Incubate 20 min at 37° C. Wash 3× with PBS++ Add 100 μl Lysis buffer/well and shake a couple of min at room temperature Store lysates at […] before utilizing for the ELISA Performance of Sandwich-ELISA Coat 96 well FluoroNunc Plate MaxiSorp Surface C with anti-Tie2 Mab 1:425 in Coating buffer pH 9.6; 100 μL/well overnight at 4° C. Wash 2× with PBST Block plates with 250 μL/well RotiBlock 1:10 in deionised water Incubate for 2 h at room temperature or overnight at 4° C. shaking Wash 2× in PBST Add thawed lysates to wells and incubate overnight shaking at 4° C. Wash 2× with PBST Add 100 μL/well anti-Phosphotyrosine HRP-Conjugated 1:10000 in 3% TopBlock (3% TopBlock in PBST) and incubate overnight under shaking Wash 6× with PBST Add 100 μL/well BM Chemiluminescence ELISA Substrate (POD solutions 1 and 2 (1:100) Determine luminescence with the LumiCount. Biological Experiment 2: Tie-2-Kinase HTRF-Assay
Target sequence in this assay (Q02763 23-1124): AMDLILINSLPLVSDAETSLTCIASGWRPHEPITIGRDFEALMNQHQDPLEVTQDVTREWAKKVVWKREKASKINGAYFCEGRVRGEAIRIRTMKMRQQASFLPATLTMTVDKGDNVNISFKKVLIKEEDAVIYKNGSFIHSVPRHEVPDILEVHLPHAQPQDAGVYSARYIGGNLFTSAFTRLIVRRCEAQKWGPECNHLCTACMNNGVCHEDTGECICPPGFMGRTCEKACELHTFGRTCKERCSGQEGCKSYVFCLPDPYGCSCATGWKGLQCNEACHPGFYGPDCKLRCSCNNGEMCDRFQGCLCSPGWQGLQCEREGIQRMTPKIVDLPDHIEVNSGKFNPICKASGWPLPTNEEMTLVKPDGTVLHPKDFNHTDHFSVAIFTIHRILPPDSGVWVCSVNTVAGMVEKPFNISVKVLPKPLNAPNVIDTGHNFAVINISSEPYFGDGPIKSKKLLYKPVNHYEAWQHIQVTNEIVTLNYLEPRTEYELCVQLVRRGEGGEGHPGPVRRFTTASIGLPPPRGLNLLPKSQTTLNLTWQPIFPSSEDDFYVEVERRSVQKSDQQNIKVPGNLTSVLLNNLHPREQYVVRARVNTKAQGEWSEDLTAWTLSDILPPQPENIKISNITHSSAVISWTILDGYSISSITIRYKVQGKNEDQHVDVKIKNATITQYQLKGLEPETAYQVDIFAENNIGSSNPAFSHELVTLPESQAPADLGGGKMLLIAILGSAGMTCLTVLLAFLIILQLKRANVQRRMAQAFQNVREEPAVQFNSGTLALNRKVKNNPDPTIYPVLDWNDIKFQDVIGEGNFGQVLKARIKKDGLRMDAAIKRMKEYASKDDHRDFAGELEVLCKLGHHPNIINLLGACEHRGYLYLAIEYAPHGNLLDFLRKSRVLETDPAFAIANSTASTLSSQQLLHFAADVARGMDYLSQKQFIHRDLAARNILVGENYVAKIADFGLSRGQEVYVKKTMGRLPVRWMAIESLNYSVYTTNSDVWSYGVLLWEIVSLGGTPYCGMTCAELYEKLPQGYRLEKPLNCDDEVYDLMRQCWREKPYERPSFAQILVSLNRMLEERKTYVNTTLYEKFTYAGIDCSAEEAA

VEGFR-2 = target: T2, VEGFR-2 (Homo sapiens, UniProt P35968); test: VEGFR-2 kinase assay (Biological Experiment 5, HTRF); assay type: biochemical; conditions: mean IC50; recombinant VEGFR-2, 10 μM ATP; read-out: Inhibition of VEGFR-2 kinase
T2 construct: made in house; host or cells: E. coli
T2 sequence (P35968 20-1356): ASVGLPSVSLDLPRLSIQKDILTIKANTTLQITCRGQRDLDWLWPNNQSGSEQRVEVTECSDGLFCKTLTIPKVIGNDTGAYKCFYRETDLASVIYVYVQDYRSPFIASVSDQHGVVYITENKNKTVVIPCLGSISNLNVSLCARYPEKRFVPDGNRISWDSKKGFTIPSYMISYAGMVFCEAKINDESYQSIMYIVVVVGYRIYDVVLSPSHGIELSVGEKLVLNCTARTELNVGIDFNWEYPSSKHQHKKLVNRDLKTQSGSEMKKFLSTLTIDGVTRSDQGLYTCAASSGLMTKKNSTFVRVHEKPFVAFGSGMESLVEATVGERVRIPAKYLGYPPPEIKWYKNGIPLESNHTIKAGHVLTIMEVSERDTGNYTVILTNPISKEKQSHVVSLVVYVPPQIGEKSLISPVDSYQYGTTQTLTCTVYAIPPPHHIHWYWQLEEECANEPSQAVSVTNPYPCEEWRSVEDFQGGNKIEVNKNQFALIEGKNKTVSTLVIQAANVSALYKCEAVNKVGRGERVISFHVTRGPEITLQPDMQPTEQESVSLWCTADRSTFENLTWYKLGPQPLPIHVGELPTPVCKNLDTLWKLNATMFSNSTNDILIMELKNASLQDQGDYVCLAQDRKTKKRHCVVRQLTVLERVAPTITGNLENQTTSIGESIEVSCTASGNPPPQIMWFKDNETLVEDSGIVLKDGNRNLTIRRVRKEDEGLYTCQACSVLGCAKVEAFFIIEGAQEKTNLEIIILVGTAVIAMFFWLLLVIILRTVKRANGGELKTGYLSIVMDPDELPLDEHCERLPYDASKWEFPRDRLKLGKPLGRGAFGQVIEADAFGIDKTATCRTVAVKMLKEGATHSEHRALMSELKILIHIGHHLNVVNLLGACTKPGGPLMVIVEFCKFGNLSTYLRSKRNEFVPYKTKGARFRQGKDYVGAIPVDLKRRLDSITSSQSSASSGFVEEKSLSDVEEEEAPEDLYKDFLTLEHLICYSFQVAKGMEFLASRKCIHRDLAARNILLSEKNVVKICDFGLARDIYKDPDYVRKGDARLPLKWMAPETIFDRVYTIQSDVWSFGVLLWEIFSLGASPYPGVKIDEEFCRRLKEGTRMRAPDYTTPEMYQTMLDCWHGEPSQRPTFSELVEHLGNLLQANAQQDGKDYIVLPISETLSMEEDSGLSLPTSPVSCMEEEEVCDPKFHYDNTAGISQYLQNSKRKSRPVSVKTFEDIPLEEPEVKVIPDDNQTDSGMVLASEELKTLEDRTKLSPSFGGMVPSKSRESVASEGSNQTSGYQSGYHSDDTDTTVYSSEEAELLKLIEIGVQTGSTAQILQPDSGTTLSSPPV
Protocol: Biological Experiment 5: VEGFR-2 Kinase Assay
Recombinant VEGFR-2 protein was expressed in E. coli and purified. As kinase substrate, a biotinylated peptide with the amino acid sequence biotin-DFGLARDMYDKEYYSVG was used, which was obtained from Biosynthan.
VEGFR-2 [Test volume 5 μL] was incubated for 45 min at 22° C. in the presence of different concentrations of test substances (0 μM, including 10 datapoints within the range 0.001-20 μM in duplicate) in assay buffer [50 mM HEPES pH7.0, 25.0 mM MgCl2, 5.0 mM MnCl2, 0.1 mM Na ortho-Vanadate, 1.0 mM Dithiothreitol, 0.001% NP40, 10 μM ATP, 1.2 μM peptide substrate, 1.0% DMSO]. The reaction was stopped by addition of 5 μL of an EDTA/detection-solution [50 mM HEPES pH7.5, 125 mM EDTA, 0.2% BSA, 0.1 μM Streptavidin-XLent (obtained from CisBio), 1 nM PT66-Eu (obtained from PerkinElmer)]. The measurement of the fluorescence emission at 620 nm and 665 nm through excitation with light of wavelength 350 nm was accomplished in a Rubystar HTRF-measurement instrument obtained from BMG Labsystems.
The data (ratio of emission at 665 nm to emission at 620 nm multiplied by 10000) was normalised to 0% inhibition (enzyme reaction without inhibitor) and 100% inhibition (all assay components without enzyme). The determination of the IC50 values was accomplished with a 4-parameter fit using in-house software.

Row | IC50 (Tie2 [1]) [nM] | IC50 (Tie2 [2]) [nM] | IC50 (VEGFR-2) [nM] | Structure (SMILES)
1 | ≤ 500 | ≤ 500 |  | CC(C)(C)c1cc(-c2ccc(NC(=O)C3(c4ccccc4)CC3)cc2)c2c(N)n[nH]c2n1 [Example 49, 1-phenyl-cyclopropanecarboxylic acid [4-(3-amino-6-tert-butyl-1H-pyrazolo[3,4-b]pyridin-4-yl)-phenyl]-amide]
2 | 500 to 2000 | ≤ 500 |  | CC(C)(C)c1cc(-c2ccc(NC(=O)Nc3ccc(F)cc3)cc2)c2c(N)n[nH]c2n1 [Example 12, 1-[4-(3-amino-6-tert-butyl-1H-pyrazolo[3,4-b]pyridin-4-yl)-phenyl]-3-(4-fluoro-phenyl)-urea]
3 | ≤ 500 | 500 to 2000 | 500 to 2000 | CC(C)(C)c1cc(-c2ccc(NC(=O)Nc3ccccc3)cc2)c2c(N)n[nH]c2n1 [Example 1, 1-[4-(3-amino-6-tert-butyl-1H-pyrazolo[3,4-b]pyridin-4-yl)-phenyl]-3-phenyl-urea]
4 | 500 to 2000 | 500 to 2000 |  | CC(C)(C)c1cc(-c2ccc(NC(=O)Cc3ccccc3)cc2)c2c(N)n[nH]c2n1 [Example 47, N-[4-(3-amino-6-tert-butyl-1H-pyrazolo[3,4-b]pyridin-4-yl)-phenyl]-2-phenyl-acetamide]
5 | ≤ 500 | ≤ 500 | ≤ 500 | CC(C)(C)c1cc(-c2ccc(NC(=O)Nc3cccc(C(F)(F)F)c3)cc2)c2c(N)n[nH]c2n1 [Example 27, 1-[4-(3-amino-6-tert-butyl-1H-pyrazolo-[3,4-b]pyridin-4-yl)-phenyl]-3-(3-trifluoro-methyl-phenyl)-urea]
6 | ≤ 500 | ≤ 500 | 500 to 2000 | Cc1cccc(NC(=O)Nc2ccc(-c3cc(C(C)(C)C)nc4[nH]nc(N)c34)cc2)c1 [Example 9, 1-[4-(3-amino-6-tert-butyl-1H-pyrazolo[3,4-b]pyridin-4-yl)-phenyl]-3-m-tolyl-urea]
7 | 500 to 2000 | ≤ 500 |  | CC(C)(C)c1cc(-c2ccc(NC(=O)C(C)(C)c3ccccc3)cc2)c2c(N)n[nH]c2n1 [Example 51, N-[4-(3-amino-6-tert-butyl-1H-pyrazolo[3,4-b]pyridin-4-yl)-phenyl]-2-phenyl-isobutyramide]
8 | ≤ 500 | ≤ 500 | ≤ 500 | CC(C)(C)c1cc(-c2ccc(NC(=O)Nc3cc(C(F)(F)F)ccc3F)cc2)c2c(N)n[nH]c2n1 [Example 37, 1-[4-(3-amino-6-tert-butyl-1H-pyrazolo[3,4-b]pyridin-4-yl)-phenyl]-3-(2-fluoro-5-trifluoromethyl-phenyl)-urea]
9 | 500 to 2000 | 500 to 2000 |  | CC(C)(C)c1cc(-c2ccc(NS(=O)(=O)c3ccccc3)cc2)c2c(N)n[nH]c2n1 [Example 2, N-[4-(3-amino-6-tert-butyl-1H-pyrazolo[3,4-b]pyridin-4-yl)-phenyl]-benzenesulfonamide]
10 | ≤ 500 | ≤ 500 | ≤ 500 | CC(C)c1cc(-c2ccc(NC(=O)Nc3cccc(C(F)(F)F)c3)cc2)c2c(N)n[nH]c2n1 [Example 16, 1-[4-(3-amino-6-isopropyl-1H-pyrazolo[3,4-b]pyridin-4-yl)-phenyl]-3-(3-trifluoromethyl-phenyl)-urea]
11 | 500 to 2000 | ≤ 500 | ≤ 500 | Nc1n[nH]c2nc(C3CC3)cc(-c3ccc(NC(=O)Nc4ccccc4)cc3)c12 [Example 14, 1-[4-(3-amino-6-cyclopropyl-1H-pyrazolo[3,4-b]pyridin-4-yl)-phenyl]-3-phenyl-urea]
12 | ≤ 500 | ≤ 500 | 500 to 2000 | Nc1n[nH]c2nc(C3CC3)cc(-c3ccc(NC(=O)Nc4ccccc4F)cc3)c12 [Example 15, 1-[4-(3-amino-6-cyclopropyl-1H-pyrazolo[3,4-b]pyridin-4-yl)-phenyl]-3-(2-fluoro-phenyl)-urea]
13 | 500 to 2000 | 500 to 2000 | 500 to 2000 | Cc1ccc(C(=O)Nc2ccc(-c3cc(C(C)(C)C)nc4[nH]nc(N)c34)cc2)cc1 [Example 17, N-[4-(3-amino-6-tert-butyl-1H-pyrazolo[3,4-b]pyridin-4-yl)-phenyl]-4-methyl-benzamide]
14 | 500 to 2000 | ≤ 500 |  | CC(C)(C)c1cc(-c2ccc(NC(=O)Nc3cccc(F)c3)cc2)c2c(N)n[nH]c2n1 [Example 3, 1-[4-(3-amino-6-tert-butyl-1H-pyrazolo[3,4-b]pyridin-4-yl)-phenyl]-3-(3-fluoro-phenyl)-urea]
15 | ≤ 500 |  |  | Cc1ccc(F)c(NC(=O)Nc2ccc(-c3cc(C(C)(C)C)nc4[nH]nc(N)c34)cc2)c1 [Example 31, 1-[4-(3-amino-6-tert-butyl-1 H-pyrazolo[3,4-b]pyridin-4-yl)-phenyl]-3-(2-fluoro-5-methyl-phenyl)-urea]
